Data from ChEMBL document CHEMBL5465560, “Selectivity Literature for EUbOPEN Chemogenomic Library” (2024).

Tests used:
[1] = target: T1, G protein-coupled receptor kinase 3 (Homo sapiens) (UniProt P35626); assay: Selectivity interaction (KinomeScan (DiscoverX)) EUB0000229b ADRBK2; conditions: at 10 µM
T1 sequence (whole entry): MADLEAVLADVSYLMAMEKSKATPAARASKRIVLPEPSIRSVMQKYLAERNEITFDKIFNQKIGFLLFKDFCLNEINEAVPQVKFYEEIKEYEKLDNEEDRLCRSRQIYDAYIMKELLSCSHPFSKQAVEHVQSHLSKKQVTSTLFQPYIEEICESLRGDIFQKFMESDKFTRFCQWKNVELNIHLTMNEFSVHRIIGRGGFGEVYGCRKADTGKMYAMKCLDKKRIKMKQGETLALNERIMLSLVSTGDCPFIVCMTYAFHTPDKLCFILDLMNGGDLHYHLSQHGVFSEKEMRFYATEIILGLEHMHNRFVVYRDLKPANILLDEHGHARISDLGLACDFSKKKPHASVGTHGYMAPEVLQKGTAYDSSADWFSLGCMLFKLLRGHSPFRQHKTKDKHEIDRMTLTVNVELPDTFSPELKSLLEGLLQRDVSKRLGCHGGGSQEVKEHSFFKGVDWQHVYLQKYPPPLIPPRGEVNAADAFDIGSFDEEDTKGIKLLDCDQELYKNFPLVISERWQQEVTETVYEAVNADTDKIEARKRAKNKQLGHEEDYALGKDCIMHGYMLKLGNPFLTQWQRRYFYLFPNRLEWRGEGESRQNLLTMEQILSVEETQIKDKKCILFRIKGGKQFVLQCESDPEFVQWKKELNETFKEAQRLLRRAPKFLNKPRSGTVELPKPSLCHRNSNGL

[2] = target: Serine/threonine-protein kinase 24 (Homo sapiens) (UniProt Q9Y6E0); assay: Selectivity interaction (KinomeScan (DiscoverX)) EUB0000695a STK24; conditions: at 100 nM
Sequence of Serine/threonine-protein kinase 24 (Homo sapiens) (Q9Y6E0 whole entry, looked up): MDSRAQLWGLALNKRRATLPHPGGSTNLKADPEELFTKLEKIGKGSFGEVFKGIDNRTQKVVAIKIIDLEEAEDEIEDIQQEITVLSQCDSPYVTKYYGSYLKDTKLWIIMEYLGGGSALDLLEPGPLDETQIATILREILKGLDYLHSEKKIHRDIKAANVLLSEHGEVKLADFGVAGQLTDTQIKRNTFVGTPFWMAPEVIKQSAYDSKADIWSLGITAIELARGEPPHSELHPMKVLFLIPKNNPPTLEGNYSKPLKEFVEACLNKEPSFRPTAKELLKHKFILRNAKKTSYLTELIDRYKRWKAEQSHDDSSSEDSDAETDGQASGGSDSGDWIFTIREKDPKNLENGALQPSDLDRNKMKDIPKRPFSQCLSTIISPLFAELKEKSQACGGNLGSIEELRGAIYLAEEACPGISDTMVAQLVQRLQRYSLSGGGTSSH

[3] = target: Serine/threonine-protein kinase/endoribonuclease IRE1 (Homo sapiens) (UniProt O75460); assay: Selectivity interaction (LanthaScreen Eu Kinase Binding Assay) EUB0001632a ERN1; conditions: at 10 µM
Sequence of Serine/threonine-protein kinase/endoribonuclease IRE1 (Homo sapiens) (O75460 19-977 limits assumed): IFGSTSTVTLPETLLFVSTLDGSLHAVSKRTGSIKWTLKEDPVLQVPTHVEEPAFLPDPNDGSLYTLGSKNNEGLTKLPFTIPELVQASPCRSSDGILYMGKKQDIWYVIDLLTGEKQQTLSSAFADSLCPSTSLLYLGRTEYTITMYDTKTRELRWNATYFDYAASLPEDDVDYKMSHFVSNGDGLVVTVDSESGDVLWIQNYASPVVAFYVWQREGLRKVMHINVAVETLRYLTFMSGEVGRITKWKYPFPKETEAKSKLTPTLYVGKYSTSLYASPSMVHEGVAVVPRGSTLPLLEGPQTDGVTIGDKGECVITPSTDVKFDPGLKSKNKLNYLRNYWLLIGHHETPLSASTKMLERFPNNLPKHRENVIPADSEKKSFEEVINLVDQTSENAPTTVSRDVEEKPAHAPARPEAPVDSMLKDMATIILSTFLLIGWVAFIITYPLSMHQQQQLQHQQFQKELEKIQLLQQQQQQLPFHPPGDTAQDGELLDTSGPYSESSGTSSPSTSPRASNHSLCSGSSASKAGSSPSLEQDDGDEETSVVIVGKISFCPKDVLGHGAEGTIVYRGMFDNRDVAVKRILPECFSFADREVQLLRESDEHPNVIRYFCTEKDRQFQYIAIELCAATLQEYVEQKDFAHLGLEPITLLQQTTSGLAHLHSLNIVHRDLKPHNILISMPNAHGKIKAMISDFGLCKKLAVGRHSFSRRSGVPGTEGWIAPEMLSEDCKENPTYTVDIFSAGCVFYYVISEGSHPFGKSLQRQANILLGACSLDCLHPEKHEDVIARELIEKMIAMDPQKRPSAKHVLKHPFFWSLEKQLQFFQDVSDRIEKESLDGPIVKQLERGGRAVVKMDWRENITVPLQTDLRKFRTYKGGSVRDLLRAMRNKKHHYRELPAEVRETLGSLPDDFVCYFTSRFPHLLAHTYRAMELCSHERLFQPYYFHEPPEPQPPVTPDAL

[4] = system: T2, Receptor-type tyrosine-protein kinase FLT3 (Homo sapiens), P36888 [D835H]; conditions: at 10 µM
T2 sequence (whole entry): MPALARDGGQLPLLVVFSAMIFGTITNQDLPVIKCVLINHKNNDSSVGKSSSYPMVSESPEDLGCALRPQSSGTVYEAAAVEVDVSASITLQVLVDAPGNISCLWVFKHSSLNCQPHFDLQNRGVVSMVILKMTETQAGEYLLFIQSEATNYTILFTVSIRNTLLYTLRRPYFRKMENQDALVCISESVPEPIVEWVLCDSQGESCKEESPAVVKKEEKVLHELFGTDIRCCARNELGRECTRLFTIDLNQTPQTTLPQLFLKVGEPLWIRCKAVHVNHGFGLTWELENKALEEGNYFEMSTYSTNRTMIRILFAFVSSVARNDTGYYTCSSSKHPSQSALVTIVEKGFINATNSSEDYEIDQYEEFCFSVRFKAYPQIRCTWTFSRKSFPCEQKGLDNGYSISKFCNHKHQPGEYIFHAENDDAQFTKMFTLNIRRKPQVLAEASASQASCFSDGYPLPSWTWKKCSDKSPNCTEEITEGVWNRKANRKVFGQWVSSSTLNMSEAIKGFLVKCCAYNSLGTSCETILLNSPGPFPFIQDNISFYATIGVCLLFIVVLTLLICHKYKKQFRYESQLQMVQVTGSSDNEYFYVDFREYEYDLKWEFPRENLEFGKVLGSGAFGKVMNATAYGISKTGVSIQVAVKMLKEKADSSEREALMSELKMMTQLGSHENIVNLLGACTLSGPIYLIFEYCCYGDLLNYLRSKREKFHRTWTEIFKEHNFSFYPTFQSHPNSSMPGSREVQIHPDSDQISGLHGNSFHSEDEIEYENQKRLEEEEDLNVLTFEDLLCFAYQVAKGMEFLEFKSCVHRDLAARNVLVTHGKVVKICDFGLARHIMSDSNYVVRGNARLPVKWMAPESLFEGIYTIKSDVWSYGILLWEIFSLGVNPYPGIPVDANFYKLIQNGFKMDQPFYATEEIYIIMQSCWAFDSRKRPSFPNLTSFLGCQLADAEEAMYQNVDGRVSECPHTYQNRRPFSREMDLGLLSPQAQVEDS

[5] = Selectivity interaction (KinomeScan (DiscoverX)) EUB0000618a CDK2H; conditions: at 10 µM

**Q.** For COc1cc(N(C)c2ccnc3ccc(C(F)(F)F)cc23)cc(OC)c1OC, which % binding [1] is on record?
**A.** 43%

**Q.** For Cc1cc(F)c(C(=O)Nc2cccc(-c3nncn3C(C)C)n2)cc1-n1cnc(C2CC2)c1, which % of control [2] is on record?
**A.** 100%

**Q.** With Cn1cc(-n2cnc3c(NCc4nc5cc(Cl)c(Cl)cc5[nH]4)nc(N4CCOCC4)nc32)cn1 as the compound, how does the % of inhibition [3] read?
**A.** -111%

**Q.** Which % of control [4] does the source give for Cc1cc([C@@H](C)Nc2ccccc2C(=O)O)c2nc(N3CCOCC3)cc(=O)n2c1 [AZD-6482] here?
**A.** 27%

**Q.** With O[C@H]1CC[C@H](Nc2ncc3nc(Nc4c(F)cc(F)cc4F)n([C@H]4CCOC4)c3n2)CC1 as the compound, how does the % of control [5] read?
**A.** 100%
